Measurements taken from US6420367B1, “Pyrimidine derivatives exhibiting antitumor activity” (Shionogo & Co., Ltd., priority 1998, dated 2002).
Values after ≈ are worked out from the molar mass of the structure shown.

Experiments:
[1] = tested on: DT-R cells (pRRE3-luc-transfected v-ki-ras-transformed NIH3T3 cells); signal derived from Ras oncogene products; experiment: Inhibitory effect against cellular signaling derived from Ras oncogene products: luciferase reporter, dissociation of DT-R from DT-C activity (MAC); format: cell-based, mouse; conditions: minimal tested concentration at which luciferase activities of DT-C cells and DT-R cells dissociated
Method in brief: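 Value is a minimal active concentration: lowest dose where Ras-responsive reporter (DT-R) luciferase diverges from SV40-minimal-promoter control (DT-C). Both transfected v-Ki-ras NIH3T3 lines received 3-fold serial dilutions for 24 h at 37 °C in 10% FCS medium before lysis and luminometry.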

[2] = tested on: DT-C cells (pGV-P-transfected v-ki-ras-transformed NIH3T3 cells); experiment: Luciferase activity in control DT-C cells (IC50-C): non-specific transcription-inhibitory effect or cytotoxicity; format: cell-based, mouse; conditions: tested concentration nearest to 50% inhibition in DT-C cells; index of non-specific transcription inhibition or cytotoxicity
Source text: Test Example 1 Inhibitory Effect Against Cellular Signaling Derived From Ras Oncogene Products
1) Establishment of Cell Lines Used in Assay
Based on the reporter plasmid (pGV-P (Toyo Ink, Japan)), in which luciferase gene was ligated to SV40-derived minimal promoter, we constructed a plasmid designated pRRE3-luc by inserting 3 copies of chemically synthesized oligonucleotides (Sequence: CAGGATATGACTCT, derived from mouse NVL-3 (M. A. Reddy et al.(1992)Mol. Endocrinol., 6, 1051)) into upstream of the promoter. v-ki-ras-transformed NIH3T3 cells (DT cells, provided by Dr. Makoto Noda (Kyoto Univ., School of medicine)) were transfected with this plasmid by liposome-mediated transfection and transfected cell lines stably incorporated and maintained each plasmid were obtained. We named pGV-P and pRRE3-transfected cell line as DT-C and DT-R, respectively and used in the assay described below.
2) Preparation of Samples
i) All the cell lines were cultured in Dulbecco's Modified Essential Medium (DMEM: 10% Fetal Calf Serum(FCS: Hyclone, USA)) including […] kanamycin (Meiji Seika, Japan) in humidified incubator under condition of 5% CO2 at 37° C.
ii) DT-C and DT-R cells were seeded at 2500 cells/well into flat-bottom 96 well multiplate (Sumitomo bakelite) and incubated for 24 hours.
iii) Test compounds were prepared as 1 mg/ml DMSO solution.
iv) The solution of test compounds were added to the culture. Tested compounds are used at the concentration from […] to 0.51 ng/ml with by 3-fold dilution.
v) After 24 hours, the culture supernatant was completely aspirated and […] of cell-lysing solution (PGC-50 (Toyo Ink, Japan)) was added before cells were dried up. In order to the cells were lysed completely, multiwell plates were left at room temperature for 10 to 30 min. The plates were wrapped up and stored at −20° C. till the day of measurement.
3) Measurement of Samples
i) Melt the samples by putting 96 well multiplate at 37° C. and add 90 μl/well 25 mM Tris (pH 7.5).
ii) Transfer 50 μl of the sample (110 μl) to the 96 well microplate for measurement (Microlite 1 (Dynatech)).
iii) Measure the samples by the luminometer, LUMINOUS CT9000D (Dia-Yatron, Japan). We used Pickagene luminescence kit PGL2000 or LT2.0 (Toyo Ink, Japan) as substrates for luminescence measurement (50 μl/well).
4) Judgment of the Results
i) The luciferase activity of DT-C cells and DT-R cells were plotted in the graph where the relative activity and the compound concentration were expressed as Y-axis and X-axis, respectively. We judged by the degree of dissociation between the activities of DT-C cells and DT-R cells as an index.
ii) Concretely, efficacy of the compound was expressed by two values described below.
b) Among the points of concentration tested, the concentration which is the nearest to 50% inhibition concentration at DT-C cells (IC50-C), was shown as an index of non-specific transcription-inhibitory effect or of cytotoxicity. In case of positive compounds, 50% inhibition concentration above the area of active concentration in DT-C cells was expressed as IC50-C.

[3] = tested on: human lung adenocarcinoma A549; experiment: In vitro cell growth inhibition test, MTT assay; format: cell-based; conditions: MTT assay 4 days after compound addition
Method in brief: (§1)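 MTT read-out; human cancer cell panel (lung squamous, lung adeno, colon, plus pancreas PANC-1).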

[4] = tested on: human pancreas cancer PANC-1; experiment: In vitro cell growth inhibition test, MTT assay; format: cell-based; conditions: MTT assay 4 days after compound addition
Method in brief: as §1

[5] = tested on: human squamous lung cancer RERF-RC-AI; experiment: In vitro cell growth inhibition test, MTT assay; format: cell-based; conditions: MTT assay 4 days after compound addition
Method in brief: as §1

[6] = tested on: human squamous lung cancer Ma44; experiment: In vitro cell growth inhibition test, MTT assay; format: cell-based; conditions: MTT assay 4 days after compound addition
Method in brief: as §1

human colon cancer HT29 = experiment: In vitro cell growth inhibition test, MTT assay; format: cell-based; conditions: MTT assay 4 days after compound addition
Method in brief: as §1

| SMILES | MAC (Minimal Active Concentration) [1] [µg/mL] | IC50-C [2] [µg/mL] | IC50, A549 [3] [µg/mL] | IC50, PANC-1 [4] [µg/mL] | IC50, RERF-LC-AI [5] [µg/mL] | IC50, Ma44 [6] [µg/mL] | IC50, HT29 (human colon cancer HT29) [µg/mL] |
| --- | --- | --- | --- | --- | --- | --- | --- |
| CCNC(=Nc1nc(CC)ncc1CSc1nnc(-c2ccc([N+](=O)[O-])cc2)o1)NCC [Compound A-131] | 0.0412 | >10 | 0.03 (≈ 0.0657 µM) | 0.028 (≈ 0.0613 µM) | 0.015 (≈ 0.0329 µM) | 0.028 (≈ 0.0613 µM) | 0.025 (≈ 0.0548 µM) |
| CCCNC(=Nc1nc(C)ncc1CSc1nnc(-c2ccc(N)cc2)o1)NCCC [Compound A-144] | 0.0137 | >10 | 0.019 (≈ 0.0431 µM) | 0.016 (≈ 0.0363 µM) | 0.007 (≈ 0.0159 µM) | 0.031 (≈ 0.0704 µM) | 0.006 (≈ 0.0136 µM) |
| CNC(=Nc1nc(C)ncc1CSc1nnc(-c2ccc(N)cc2)o1)NC [Compound A-147] | 0.123 | >10 | 0.1 (≈ 0.26 µM) | 0.018 (≈ 0.0468 µM) | 0.008 (≈ 0.0208 µM) | 0.071 (≈ 0.185 µM) | 0.008 (≈ 0.0208 µM) |
| CCCNC(=Nc1nc(CC)ncc1CSc1nnc(-c2ccc([N+](=O)[O-])cc2)o1)NCC [Compound A-149] | 0.123 | 3.33 (≈ 7.08 µM) | 0.025 (≈ 0.0531 µM) | 0.041 (≈ 0.0871 µM) | 0.026 (≈ 0.0553 µM) | 0.085 (≈ 0.181 µM) | 0.034 (≈ 0.0723 µM) |
| CCNC(=Nc1nc(C)ncc1CSc1nnc(-c2ccsc2N)o1)NCC [Compound D-8] | 0.0412 | >10 | 0.027 (≈ 0.0645 µM) | 0.013 (≈ 0.0311 µM) | 0.012 (≈ 0.0287 µM) | 0.036 (≈ 0.086 µM) | 0.03 (≈ 0.0717 µM) |
| CCc1ncc(CSc2nnc(-c3ccc([N+](=O)[O-])cc3)o2)c(N=C(NC)NC)n1 [Compound A-152] | 0.123 | >10 | 0.069 (≈ 0.161 µM) | 0.013 (≈ 0.0303 µM) | 0.006 (≈ 0.014 µM) | 0.039 (≈ 0.091 µM) | 0.082 (≈ 0.191 µM) |
| CCNC(=Nc1nc(C)ncc1CSc1nnc(-c2ccc(N)cc2)o1)NC [Compound A-168] | 0.0412 | >10 | 0.012 (≈ 0.0301 µM) | 0.0059 (≈ 0.0148 µM) | 0.0028 (≈ 0.00703 µM) | 0.017 (≈ 0.0427 µM) | 0.0055 (≈ 0.0138 µM) |
| CCNC(=Nc1nc(C)ncc1CSc1nnc(-c2ccc(N)c(O)c2)o1)NCC [Compound A-89] | 0.123 | >10 | 0.15 (≈ 0.35 µM) | 0.049 (≈ 0.114 µM) | 0.016 (≈ 0.0373 µM) | 0.86 (≈ 2.01 µM) | 0.05 (≈ 0.117 µM) |
| CCCNC(=Nc1nc(C)ncc1CSc1nnc(-c2ccc([N+](=O)[O-])cc2)o1)NCCC [Compound A-127] | 0.0137 | 3.33 (≈ 7.08 µM) | 0.028 (≈ 0.0595 µM) | 0.017 (≈ 0.0361 µM) | 0.015 (≈ 0.0319 µM) | 0.017 (≈ 0.0361 µM) | 0.018 (≈ 0.0383 µM) |
| CCNC(=Nc1nc(C)ncc1CSc1nnc(-c2ccc([N+](=O)[O-])cc2N)o1)NCC [Compound A-75] | <0.000508 | >10 | 0.0087 (≈ 0.019 µM) | 0.0065 (≈ 0.0142 µM) | 0.004 (≈ 0.00874 µM) | 0.0058 (≈ 0.0127 µM) | 0.0038 (≈ 0.00831 µM) |
| CCCCNC(=Nc1nc(C)ncc1CSc1nnc(-c2ccc([N+](=O)[O-])cc2)o1)NCC [Compound A-136] | 0.0137 | 3.33 (≈ 7.08 µM) | 0.031 (≈ 0.0659 µM) | 0.016 (≈ 0.034 µM) | 0.012 (≈ 0.0255 µM) | 0.016 (≈ 0.034 µM) | 0.011 (≈ 0.0234 µM) |
| CCNC(=Nc1nc(C)ncc1CSc1nnc(-c2ccc(N)cc2)o1)NCC.Cl.Cl [Compound A-186] | 0.0412 | >10 | 0.048 | 0.017 | 0.014 | 0.057 | 0.014 |
| CCNC(=Nc1ncncc1CSc1nnc(-c2ccncc2N)o1)NCC [Compound D-37] | 0.123 | >10 | 0.028 (≈ 0.0701 µM) | 0.013 (≈ 0.0325 µM) | 0.011 (≈ 0.0275 µM) | 0.024 (≈ 0.0601 µM) | 0.015 (≈ 0.0375 µM) |
| CCc1ncc(CSc2nnc(-c3ccc(N)cc3)o2)c(N=C(NC)NC)n1 [Compound A-153] | 0.0412 | >10 | 0.067 (≈ 0.168 µM) | 0.022 (≈ 0.0552 µM) | 0.011 (≈ 0.0276 µM) | 0.089 (≈ 0.223 µM) | 0.015 (≈ 0.0376 µM) |
| CCCNC(=Nc1nc(CC)ncc1CSc1nnc(-c2ccc([N+](=O)[O-])cc2)o1)NCCC [Compound A-138] | 0.0412 | 1.11 (≈ 2.29 µM) | 0.046 (≈ 0.0949 µM) | 0.026 (≈ 0.0537 µM) | 0.043 (≈ 0.0887 µM) | 0.04 (≈ 0.0825 µM) | 0.03 (≈ 0.0619 µM) |
| CCNC(=Nc1nc(C)ncc1CSc1nnc(-c2ccc([N+](=O)[O-])cc2OC)o1)NCC [Compound A-161] | 0.0412 | >10 | 0.012 (≈ 0.0254 µM) | 0.0053 (≈ 0.0112 µM) | 0.0068 (≈ 0.0144 µM) | 0.0071 (≈ 0.015 µM) | 0.0055 (≈ 0.0116 µM) |
| CCNC(=Nc1nc(C)ncc1CSc1nnc(-c2ccc(Cl)cc2N)o1)NCC [Compound A-44] | <0.000508 | 3.33 (≈ 7.45 µM) |  | 0.16 (≈ 0.358 µM) | 0.0061 (≈ 0.0136 µM) | 0.018 (≈ 0.0403 µM) | 0.0061 (≈ 0.0136 µM) |
| CCNC(=Nc1nc(C)ncc1CSc1nnc(-c2ccc(Br)cc2)o1)NCC [Compound A-108] | 0.123 | >10 | 0.027 (≈ 0.0567 µM) | 0.027 (≈ 0.0567 µM) |  | 0.029 (≈ 0.0609 µM) | 0.022 (≈ 0.0462 µM) |
| CCNC(=Nc1nc(C)ncc1CSc1nnc(-c2ccc(C(F)(F)F)cc2)o1)NCC [Compound A-106] | 0.370 | >10 | 0.082 (≈ 0.176 µM) | 0.056 (≈ 0.12 µM) |  | 0.086 (≈ 0.185 µM) | 0.043 (≈ 0.0924 µM) |
| CCCNC(N)=Nc1nc(C)ncc1CSc1nnc(-c2ccc(N)cc2)o1 [Compound A-157] | 0.0137 | >10 |  | 0.015 (≈ 0.0376 µM) | 0.005 (≈ 0.0125 µM) | 0.044 (≈ 0.11 µM) | 0.008 (≈ 0.0201 µM) |
